What was measured:
hNav1.7 = hNav1.7 (Homo sapiens (Human), UniProt Q15858); experiment: Electrophysiology (EP) assay, whole-cell patch clamp; format: cell-based; conditions: whole-cell patch clamp, hNav1.7 expressing HEK-293 cells; read-out: EP Nav1.7 Ki
Experimental: Cells: The hNav1.7 expressing HEK-293 cells were plated on 35 mm culture dishes pre-coated with poly-D-lysine in standard DMEM culture media (Mediatech, Inc., Herndon, Va.) and incubated in a 5% CO2 incubator at 37° C. Cultured cells were used approximately 12-48 hours after plating.
Electrophysiology: On the day of experimentation, the 35 mm dish was placed on the stage of an inverted microscope equipped with a perfusion system that continuously perfuses the culture dish with fresh recording media. A gravity driven superfusion system was used to apply test solutions directly to the cell under evaluation. This system consists of an array of glass pipette glass connected to a motorized horizontal translator. The outlet of the shooter was positioned approximately 100 μm from the cell of interest.
Gigaseals were formed and the whole-cell configuration was established in voltage clamp mode, and membrane currents generated by hNav1.7 were recorded in gap-free mode. […] Signals were sampled at 50 kHz and low pass filtered at 3 kHz.
The voltage clamp protocol to examine hNav1.7 currents was as follows. First, the standard current-voltage relationship was tested by pulsing the cell from the holding voltage (Vh) of −120 mV by a series of 5 msec long square-shaped test pulses incrementing in +10 mV steps over the membrane voltage range of −90 mV to +60 mV at the pace of stimulation of 0.5 Hz. This procedure determines the voltage that elicits the maximal current (Vmax). […] This procedure determines the voltage of full inactivation (Vfull). Third, the cell was repeatedly stimulated with the following protocol, first in the absence of the test compound then in its presence. The protocol consisted of depolarizing the cell from the holding potential of −120 mV to the Vfull value for 4.5 seconds then repolarizing the cell to the holding potential for 10 ms before applying the test pulse to the Vmax for 5 ms. The amount of inhibition produced by the test compound was determined by comparing the current amplitude elicited by the test pulse in the absence and presence of the compound.
Vehicle solution used to establish base line was also contacting 0.3% DMSO.
Data analysis: Data was analyzed off-line using Clampfit software (pClamp, v. 8; Axon Instruments) and graphed using GraphPad Prizm (v. 4.0) software.

[1] = test system: spinal nerve ligation (SNL; Chung model of neuropathic pain); experiment: Mechanical hyperalgesia (paw withdrawal threshold) in the Chung spinal nerve ligation model; format: in vivo; conditions: rats, intraperitoneal (i.p.) administration, from 1 to 3 hours
Experimental: Test Animals: Each experiment uses rats weighing between 200-260 g at the start of the experiment. The rats are group-housed and have free access to food and water at all times, except prior to oral administration of a test compound when food is removed for 16 hours before dosing. A control group acts as a comparison to rats treated with a compound of Formulae I-XX. The control group is administered the carrier as used for the test compound. The volume of carrier administered to the control group is the same as the volume of carrier and test compound administered to the test group.
In the Chung model, the spinal nerve ligation model of neuropathic pain was used to produce mechanical hyperalgesia, thermal hyperalgesia and tactile allodynia in rats. […] The animals were assessed for response to noxious mechanical stimuli by determining PWT, as described below, prior to surgery (baseline), then immediately prior to and 1, 3, and 5 hours after being administered a compound of Formulae I-XX for the left rear paw of the animal. The animals can also be assessed for response to noxious thermal stimuli or for tactile allodynia, as described below. […]
Mechanical Hyperalgesia: Sensitivity to noxious mechanical stimuli can be measured in animals using the paw pressure test to assess mechanical hyperalgesia. […] PWT is determined once for each rat at each time point. […]

human Nav1.7 = human Nav1.7 (Homo sapiens (Human), UniProt Q15858); experiment: FLIPR or FLIPR TETRA sodium dye assay with KCl and test article pre-incubation; format: cell-based; conditions: sodium dye assay with KCl; recombinant human Nav1.7 in HEK293 cells; value ± SEM
From the text: For dominant selection of the Nav1.7-expressing clones, the expression plasmid co-expressed the neomycin resistance gene. […] Recombinant beta and gamma subunits were not introduced into this cell line. Additional cell lines expressing recombinant Nav1.7 cloned from other species can also be used, alone or in combination with various beta subunits, gamma subunits or chaperones.
Cell maintenance: Unless otherwise noted, cell culture reagents were purchased from Mediatech of Herndon, Va. The recombinant Nav1.7/HEK293 cells were routinely cultured in growth medium consisting of Dulbecco's […] containing 10% fetal bovine serum (FBS, Hyclone, Thermo Fisher Scientific, Logan, Utah), 100 U/mL penicillin, […], 2-4 mM L-glutamine, and […]. For natural, non-recombinant cell lines, the selective antibiotic was omitted, and additional media formulations can be applied as needed.
The intensity of this emission, but not the wavelength range, is increased when the dye is exposed to Na^+ ions, which it can bind with partial selectivity. Cells expressing Nav1.7 or other sodium channels were loaded with the CoroNa™ Green dye immediately in advance of the fluorescence assay, and then, after agonist stimulation, the mobilization of Na^+ ions was detected as the Na^+ ions flowed from the extracellular fluid into the cytoplasm through the activated sodium channel pores. The dye was stored in the dark as a lyophilized powder, and then an aliquot was dissolved immediately before the cell loading procedure, according to the instructions of the manufacturer to a stock concentration of 10 mM in DMSO. It was then diluted in the assay buffer to a 4× concentrated working solution, so that the final concentration of dye in the cell loading buffer was 5 μM.
These scorpion toxins inhibit the fast inactivation of their cognate target channels. Stock solutions of the agonists were prepared to 40 mM in DMSO (veratridine) and 1 mg/mL in dH2O (scorpion venom), and then diluted to make a 4× or 2× stock (depending on the particular assay) in assay buffer, the final concentration being 100 μM (veratridine) and 10 μg/mL (scorpion venom). Both of the agonists were purchased from Sigma Aldrich, St. Louis, Mo.
Test Compounds: Test compounds were dissolved in DMSO to yield 10 mM stock solutions. […] If a particular test article appeared to be especially potent, then the concentration curve was adjusted, e.g., to 10-fold lower concentrations, in order to perform the dose-response in a more relevant concentration range. Compound dilutions were added during the dye-loading and pre-stimulation step, and then again during the fluorescence assay, early in the kinetic read.
Data Analysis: The data were analyzed according to methods known to those skilled in the art or using the GraphPad® Prism 4.0 Program (available from GraphPad Software, San Diego, Calif.) to determine the IC50 value for the test article. At least one standard reference compound was evaluated during each experiment.
FLIPR® or FLIPR^TETRA® sodium dye assay with KCl and test article pre-incubation: Cells were prepared by plating the recombinant HEK293 cells or other host cells expressing either recombinant or non-recombinant, native, Nav1.7 alpha subunit, alone or in combination with various beta and gamma subunits at a density of ˜40,000 cells/well into a 96-well black, clear-bottom, PDL-coated plate. The assay can be adapted to 384-well or 1,536-well format, if desired, using proportionately less cells and media. […] For counter-screens of other voltage-gated sodium channels, the procedure was very similar, though optimal densities of cells, media and subsequent assay components can be fine-tuned for the particular cell line or isoform.

human Nav1.7, sequence (Q15858 other isoform, or with tags, fused parts or gaps): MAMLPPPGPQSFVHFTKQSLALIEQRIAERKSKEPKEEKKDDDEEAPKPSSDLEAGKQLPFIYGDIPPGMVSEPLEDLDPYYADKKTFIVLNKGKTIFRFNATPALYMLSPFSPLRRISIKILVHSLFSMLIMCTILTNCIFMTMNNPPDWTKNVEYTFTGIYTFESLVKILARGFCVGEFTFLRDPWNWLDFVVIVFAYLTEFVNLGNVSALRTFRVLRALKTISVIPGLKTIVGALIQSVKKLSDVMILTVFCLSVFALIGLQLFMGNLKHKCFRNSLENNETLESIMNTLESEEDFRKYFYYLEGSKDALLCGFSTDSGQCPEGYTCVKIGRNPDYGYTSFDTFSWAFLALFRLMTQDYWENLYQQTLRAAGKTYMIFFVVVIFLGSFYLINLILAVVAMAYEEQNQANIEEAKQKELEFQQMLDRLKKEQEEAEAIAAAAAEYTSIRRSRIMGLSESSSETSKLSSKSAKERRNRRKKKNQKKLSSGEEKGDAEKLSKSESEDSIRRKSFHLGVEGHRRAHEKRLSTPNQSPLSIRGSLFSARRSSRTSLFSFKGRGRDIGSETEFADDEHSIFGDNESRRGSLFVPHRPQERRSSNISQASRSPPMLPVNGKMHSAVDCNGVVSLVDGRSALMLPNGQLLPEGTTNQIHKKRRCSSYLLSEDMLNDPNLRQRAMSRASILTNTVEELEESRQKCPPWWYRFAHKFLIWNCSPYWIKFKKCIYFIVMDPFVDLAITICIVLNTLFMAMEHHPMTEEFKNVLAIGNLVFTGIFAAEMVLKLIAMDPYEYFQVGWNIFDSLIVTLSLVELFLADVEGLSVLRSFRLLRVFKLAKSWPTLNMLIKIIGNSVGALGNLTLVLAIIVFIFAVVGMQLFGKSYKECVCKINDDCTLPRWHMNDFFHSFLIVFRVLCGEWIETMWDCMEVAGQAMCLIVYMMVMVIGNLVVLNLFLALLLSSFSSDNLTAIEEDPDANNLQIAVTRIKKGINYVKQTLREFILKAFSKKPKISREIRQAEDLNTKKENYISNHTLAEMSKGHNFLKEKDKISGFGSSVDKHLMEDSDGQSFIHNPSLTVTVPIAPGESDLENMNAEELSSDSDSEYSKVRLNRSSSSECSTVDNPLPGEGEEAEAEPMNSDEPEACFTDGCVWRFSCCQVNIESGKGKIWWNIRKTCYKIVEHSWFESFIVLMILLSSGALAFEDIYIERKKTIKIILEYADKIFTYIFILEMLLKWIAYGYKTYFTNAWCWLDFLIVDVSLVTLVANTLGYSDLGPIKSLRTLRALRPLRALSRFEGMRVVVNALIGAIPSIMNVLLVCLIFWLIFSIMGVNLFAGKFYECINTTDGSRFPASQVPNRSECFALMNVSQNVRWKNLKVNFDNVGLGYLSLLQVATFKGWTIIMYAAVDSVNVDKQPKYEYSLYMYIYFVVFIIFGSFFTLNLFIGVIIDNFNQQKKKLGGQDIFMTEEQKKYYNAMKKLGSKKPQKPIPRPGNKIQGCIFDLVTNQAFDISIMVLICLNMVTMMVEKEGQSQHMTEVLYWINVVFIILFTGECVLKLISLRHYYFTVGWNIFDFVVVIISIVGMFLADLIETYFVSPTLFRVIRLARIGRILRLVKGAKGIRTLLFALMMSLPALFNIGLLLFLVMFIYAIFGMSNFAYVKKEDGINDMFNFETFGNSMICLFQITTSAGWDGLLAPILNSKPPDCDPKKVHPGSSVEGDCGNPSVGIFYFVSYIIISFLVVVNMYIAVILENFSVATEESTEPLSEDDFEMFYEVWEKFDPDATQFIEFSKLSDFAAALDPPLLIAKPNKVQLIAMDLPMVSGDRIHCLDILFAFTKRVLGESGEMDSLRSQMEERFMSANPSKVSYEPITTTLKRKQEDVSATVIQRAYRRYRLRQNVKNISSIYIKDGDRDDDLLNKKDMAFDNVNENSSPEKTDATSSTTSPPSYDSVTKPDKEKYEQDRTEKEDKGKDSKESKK
hNav1.7, sequence (Q15858 other isoform, or with tags, fused parts or gaps): as above

Row | Compound | Ki (hNav1.7) | reversal of mechanical hyperalgesia [1] | IC50 (human Nav1.7)
1 | N#Cc1cc(Oc2ccc(-n3cc(C[C@H](N)CO)c4ccccc43)cc2)ccc1C(F)(F)F [Compound 47, (S)-5-{4-[3-(2-Amino-3-hydroxypropyl)-1H-indol-1-yl]phenoxy}-2-(trifluoromethyl)benzonitrile] | 160 nM | 10%-25% | 0.213 ± 0.052 µM
2 | N#Cc1cc(Oc2ccc(-n3cc(C(O)C(N)=O)c4ccccc43)cc2)ccc1C(F)(F)F (stereo not drawn) [Compound 60, 2-(1-(4-(3-Cyano-4-(trifluoromethyl)phenoxy)phenyl)-1H-indol-3-yl)-2-hydroxyacetamide] | 400 nM | 10%-25% | 0.224 ± 0.038 µM

Reference: patent US9212139B2, “Aryl substituted indoles and their use as blockers of sodium channels” (Purdue Pharma, L.P., priority 2010, dated 2015)
